{
  "source": "patent US11053204B2",
  "about": "“Pyrimidinyloxy benzene derivatives as herbicides” (FMC Corporation, priority 2015, dated 2021)",
  "type_in_all_cases": "in vivo",
  "key": {"[1]": {"test_system": "barnyardgrass (Echinochloa crus-galli)", "test": "Test B flooded paddy test, plant response rating", "conditions": "250 g ai/ha; Flood; scale of 0 to 100 where 0 is no effect and 100 is complete control; 13 to 15 days", "method_in_brief": "(§1)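 Ratings were visual and made relative to untreated controls after 13 to 15 greenhouse days.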"}, "[2]": {"test_system": "sedge, umbrella (small-flower umbrella sedge, Cyperus difformis)", "test": "Test B flooded paddy test, plant response rating", "conditions": "250 g ai/ha; Flood; scale of 0 to 100 where 0 is no effect and 100 is complete control; 13 to 15 days", "method_in_brief": "as §1"}, "rice (Oryza sativa)": {"test_system": "rice (Oryza sativa)", "test": "Test B flooded paddy test, plant response rating", "conditions": "250 g ai/ha; Flood; scale of 0 to 100 where 0 is no effect and 100 is complete control; 13 to 15 days", "method_in_brief": "as §1"}, "[3]": {"test_system": "ducksalad (Heteranthera limosa)", "test": "Test B flooded paddy test, plant response rating", "conditions": "250 g ai/ha; Flood; scale of 0 to 100 where 0 is no effect and 100 is complete control; 13 to 15 days", "method_in_brief": "as §1"}, "corn (Zea mays)": {"test_system": "corn (Zea mays)", "test": "Test C preemergence, plant response rating", "conditions": "Preemergence", "from_the_text": "(§2) Seeds of plant species selected from blackgrass (Alopecurus myosuroides), ryegrass, Italian (Italian ryegrass, Lolium multiflorum), wheat (winter wheat, Triticum aestivum), galium (catchweed bedstraw, Galium aparine), corn (Zea mays), crabgrass, large (large crabgrass, Digitaria sanguinalis), foxtail, giant (giant foxtail, Setaria faberii), johnsongrass (Sorghum halepense), lambsquarters (Chenopodium album), morningglory (Ipomoea coccinea), nutsedge, yellow (yellow nutsedge, Cyperus esculentus), pigweed (Amaranthus retroflexus), ragweed (common ragweed, Ambrosia elatior), soybean (Glycine max), barnyardgrass (Echinochloa crus-galli), oilseed rape (Brassica napus), pigweed, palmer (palmer pigweed, Amaranthus palmeri), waterhemp (common waterhemp, Amaranthus rudis), velvetleaf (Abutilon theophrasti), kochia (Kochia scoparia), surinam grass (Brachiaria decumbens), nightshade (eastern black nightshade, Solanum ptycanthum), wild poinsettia (Euphorbia heterophylla), windgrass (Apera spica-venti), and oat, wild (wild oat Avena fatua), were planted into a blend of loam soil and sand or a silt loam soil and treated preemergence with test chemicals formulated in a non-phytotoxic solvent mixture which included a surfactant.\n(§3) At the same time, plants selected from these crop and weed species and also chickweed (common chickweed, Stellaria media), buckwheat, wild (wild buckwheat, Polygonum convolvulus), wild mustard (Sinapis arvensis), field poppy (Papaver rhoeas), field violet (Viola arvensis), geranium, cutleaf (cutleaf geranium, Geranium dissectum), Canada thistle (Cirsium arvense), and speedwell (bird's-eye speedwell, Veronica persica), were planted in pots containing Sunshine Redi-Earth® planting medium comprising spaghnum peat moss, vermiculite, starter nutrients and dolomitic limestone and treated with postemergence applications of test chemicals formulated in the same manner. Plants ranged in height from 2 to 18 cm (1- to 4-leaf stage) for postemergence treatments. Treated plants and controls were maintained in a greenhouse for 13 to 15 d, after which time all species were compared to controls and visually evaluated. Plant response ratings, summarized in Table C, are based on a scale of 0 to 100 where 0 is no effect and 100 is complete control. A dash (-) response means no test result."}, "soybean (Glycine max)": {"test_system": "soybean (Glycine max)", "test": "Test C preemergence, plant response rating", "conditions": "Preemergence", "from_the_text": "as §2, §3"}, "[4]": {"test_system": "foxtail, giant (giant foxtail, Setaria faberii)", "test": "Test C preemergence, plant response rating", "conditions": "Preemergence", "from_the_text": "as §2, §3"}, "[5]": {"test_system": "velvetleaf (Abutilon theophrasti)", "test": "Test C preemergence, plant response rating", "conditions": "Preemergence", "from_the_text": "as §2, §3"}, "[6]": {"test_system": "blackgrass (Alopecurus myosuroides)", "test": "Test C preemergence, plant response rating", "conditions": "Preemergence", "from_the_text": "as §2, §3"}, "[7]": {"test_system": "waterhemp (common waterhemp, Amaranthus rudis)", "test": "Test C preemergence, plant response rating", "conditions": "Preemergence", "from_the_text": "as §2, §3"}, "[8]": {"test_system": "nutsedge, yellow (yellow nutsedge, Cyperus esculentus)", "test": "Test C preemergence, plant response rating", "conditions": "Preemergence", "from_the_text": "as §2, §3"}, "[9]": {"test_system": "wheat (winter wheat, Triticum aestivum)", "test": "Test C preemergence, plant response rating", "conditions": "Preemergence", "from_the_text": "as §2, §3"}, "[10]": {"test_system": "ryegrass, Italian (Italian ryegrass, Lolium multiflorum)", "test": "Test C preemergence, plant response rating", "conditions": "Preemergence", "from_the_text": "as §2, §3"}, "[11]": {"test_system": "lambsquarters (Chenopodium album)", "test": "Test C preemergence, plant response rating", "conditions": "Preemergence", "from_the_text": "as §2, §3"}, "[12]": {"test_system": "ragweed (common ragweed, Ambrosia elatior)", "test": "Test C preemergence, plant response rating", "conditions": "Preemergence", "from_the_text": "as §2, §3"}, "[13]": {"test_system": "morningglory (Ipomoea coccinea)", "test": "Test C preemergence, plant response rating", "conditions": "Preemergence", "from_the_text": "as §2, §3"}, "[14]": {"test_system": "crabgrass, large (large crabgrass, Digitaria sanguinalis)", "test": "Test C preemergence, plant response rating", "conditions": "Preemergence", "from_the_text": "as §2, §3"}, "[15]": {"test_system": "oilseed rape (Brassica napus)", "test": "Test C preemergence, plant response rating", "conditions": "Preemergence", "from_the_text": "as §2, §3"}},
  "data": [
    {"smiles": "C=C(Br)COC(=O)c1c(Br)cccc1Oc1ncc(Cl)cn1", "note": "[Compound 61]", "values": [
      {"measurement": "Plant response rating, Barnyardgrass", "setting": "[1]", "result": 20},
      {"measurement": "Plant response rating, Sedge, Umbrella", "setting": "[2]", "result": 100},
      {"measurement": "Plant response rating, Rice", "setting": "rice (Oryza sativa)", "result": 0},
      {"measurement": "Plant response rating, Ducksalad", "setting": "[3]", "result": 100},
      {"measurement": "Plant response rating, Corn", "setting": "corn (Zea mays); 62 g ai/ha, scale of 0 to 100", "result": 10},
      {"measurement": "Plant response rating, Corn", "setting": "corn (Zea mays); 125 g ai/ha, scale of 0 to 100", "result": 0},
      {"measurement": "Plant response rating, Corn", "setting": "corn (Zea mays); 16 g ai/ha, scale 0 to 100", "result": 0},
      {"measurement": "Plant response rating, Corn", "setting": "corn (Zea mays); 31 g ai/ha, scale 0 to 100", "result": 0},
      {"measurement": "Plant response rating, Soybean", "setting": "soybean (Glycine max); 125 g ai/ha, scale of 0 to 100", "result": 10},
      {"measurement": "Plant response rating, Soybean", "setting": "soybean (Glycine max); 31 g ai/ha, scale 0 to 100", "result": 20},
      {"measurement": "Plant response rating, Soybean", "setting": "soybean (Glycine max); 62 g ai/ha, scale 0 to 100", "result": 20},
      {"measurement": "Plant response rating, Foxtail, Giant", "setting": "[4]; 62 g ai/ha, scale of 0 to 100", "result": 60},
      {"measurement": "Plant response rating, Foxtail, Giant", "setting": "[4]; 125 g ai/ha, scale of 0 to 100", "result": 65},
      {"measurement": "Plant response rating, Foxtail, Giant", "setting": "[4]; 16 g ai/ha, scale 0 to 100", "result": 0},
      {"measurement": "Plant response rating, Foxtail, Giant", "setting": "[4]; 31 g ai/ha, scale 0 to 100", "result": 50},
      {"measurement": "Plant response rating, Velvetleaf", "setting": "[5]; 125 g ai/ha, scale of 0 to 100", "result": 5},
      {"measurement": "Plant response rating, Velvetleaf", "setting": "[5]; 16 g ai/ha, scale 0 to 100", "result": 0},
      {"measurement": "Plant response rating, Velvetleaf", "setting": "[5]; 31 g ai/ha, scale 0 to 100", "result": 5},
      {"measurement": "Plant response rating, Velvetleaf", "setting": "[5]; 62 g ai/ha, scale 0 to 100", "result": 5},
      {"measurement": "Plant response rating, Blackgrass", "setting": "[6]; 62 g ai/ha, scale of 0 to 100", "result": 0},
      {"measurement": "Plant response rating, Blackgrass", "setting": "[6]; 125 g ai/ha, scale of 0 to 100", "result": 5},
      {"measurement": "Plant response rating, Blackgrass", "setting": "[6]; 16 g ai/ha, scale 0 to 100", "result": 0},
      {"measurement": "Plant response rating, Blackgrass", "setting": "[6]; 31 g ai/ha, scale 0 to 100", "result": 0},
      {"measurement": "Plant response rating, Waterhemp", "setting": "[7]; 125 g ai/ha, scale of 0 to 100", "result": 100},
      {"measurement": "Plant response rating, Waterhemp", "setting": "[7]; 16 g ai/ha, scale 0 to 100", "result": 50},
      {"measurement": "Plant response rating, Waterhemp", "setting": "[7]; 31 g ai/ha, scale 0 to 100", "result": 75},
      {"measurement": "Plant response rating, Waterhemp", "setting": "[7]; 62 g ai/ha, scale 0 to 100", "result": 90},
      {"measurement": "Plant response rating, Nutsedge, Yellow", "setting": "[8]; 125 g ai/ha, scale of 0 to 100", "result": 0},
      {"measurement": "Plant response rating, Nutsedge, Yellow", "setting": "[8]; 16 g ai/ha, scale 0 to 100", "result": 0},
      {"measurement": "Plant response rating, Nutsedge, Yellow", "setting": "[8]; 31 g ai/ha, scale 0 to 100", "result": 0},
      {"measurement": "Plant response rating, Nutsedge, Yellow", "setting": "[8]; 62 g ai/ha, scale 0 to 100", "result": 0},
      {"measurement": "Plant response rating, Wheat", "setting": "[9]; 125 g ai/ha, scale of 0 to 100", "result": 10},
      {"measurement": "Plant response rating, Wheat", "setting": "[9]; 16 g ai/ha, scale 0 to 100", "result": 0},
      {"measurement": "Plant response rating, Wheat", "setting": "[9]; 31 g ai/ha, scale 0 to 100", "result": 0},
      {"measurement": "Plant response rating, Wheat", "setting": "[9]; 62 g ai/ha, scale 0 to 100", "result": 5},
      {"measurement": "Plant response rating, Ryegrass, Italian", "setting": "[10]; 125 g ai/ha, scale of 0 to 100", "result": 5},
      {"measurement": "Plant response rating, Ryegrass, Italian", "setting": "[10]; 16 g ai/ha, scale 0 to 100", "result": 0},
      {"measurement": "Plant response rating, Ryegrass, Italian", "setting": "[10]; 31 g ai/ha, scale 0 to 100", "result": 0},
      {"measurement": "Plant response rating, Ryegrass, Italian", "setting": "[10]; 62 g ai/ha, scale 0 to 100", "result": 0},
      {"measurement": "Plant response rating, Lambsquarters", "setting": "[11]; 125 g ai/ha, scale of 0 to 100", "result": 60},
      {"measurement": "Plant response rating, Lambsquarters", "setting": "[11]; 16 g ai/ha, scale 0 to 100", "result": 5},
      {"measurement": "Plant response rating, Lambsquarters", "setting": "[11]; 31 g ai/ha, scale 0 to 100", "result": 15},
      {"measurement": "Plant response rating, Lambsquarters", "setting": "[11]; 62 g ai/ha, scale 0 to 100", "result": 50},
      {"measurement": "Plant response rating, Ragweed", "setting": "[12]; 125 g ai/ha, scale of 0 to 100", "result": 30},
      {"measurement": "Plant response rating, Ragweed", "setting": "[12]; 16 g ai/ha, scale 0 to 100", "result": 0},
      {"measurement": "Plant response rating, Ragweed", "setting": "[12]; 31 g ai/ha, scale 0 to 100", "result": 0},
      {"measurement": "Plant response rating, Ragweed", "setting": "[12]; 62 g ai/ha, scale 0 to 100", "result": 5},
      {"measurement": "Plant response rating, Morningglory", "setting": "[13]; 125 g ai/ha, scale of 0 to 100", "result": 0},
      {"measurement": "Plant response rating, Morningglory", "setting": "[13]; 16 g ai/ha, scale 0 to 100", "result": 0},
      {"measurement": "Plant response rating, Morningglory", "setting": "[13]; 31 g ai/ha, scale 0 to 100", "result": 0},
      {"measurement": "Plant response rating, Morningglory", "setting": "[13]; 62 g ai/ha, scale 0 to 100", "result": 0},
      {"measurement": "Plant response rating, Crabgrass, Large", "setting": "[14]; 62 g ai/ha, scale of 0 to 100", "result": 75},
      {"measurement": "Plant response rating, Crabgrass, Large", "setting": "[14]; 125 g ai/ha, scale of 0 to 100", "result": 90},
      {"measurement": "Plant response rating, Crabgrass, Large", "setting": "[14]; 16 g ai/ha, scale 0 to 100", "result": 0},
      {"measurement": "Plant response rating, Crabgrass, Large", "setting": "[14]; 31 g ai/ha, scale 0 to 100", "result": 10},
      {"measurement": "Plant response rating, Oilseed Rape", "setting": "[15]; 125 g ai/ha, scale of 0 to 100", "result": 10},
      {"measurement": "Plant response rating, Oilseed Rape", "setting": "[15]; 16 g ai/ha, scale 0 to 100", "result": 0},
      {"measurement": "Plant response rating, Oilseed Rape", "setting": "[15]; 31 g ai/ha, scale 0 to 100", "result": 0},
      {"measurement": "Plant response rating, Oilseed Rape", "setting": "[15]; 62 g ai/ha, scale 0 to 100", "result": 0}
    ]}
  ]
}
